In patent publication US7071195B2, “Amine and amide derivatives as ligands for the neuropeptide Y Y5 receptor useful in the treatment of obesity and other disorders” (Ortho-McNeil Pharmaceutical, Inc., priority 1999, dated 2006):
Counter-ions that a name gives are not always drawn.

Target: T1, human neuropeptide Y5 receptor (Homo sapiens, UniProt Q15761)
T1 construct: expressed in transfected cells; host or cells: HEK-293 (stably transfected, G-418 selected); membranes
T1 sequence (Q15761 1-445): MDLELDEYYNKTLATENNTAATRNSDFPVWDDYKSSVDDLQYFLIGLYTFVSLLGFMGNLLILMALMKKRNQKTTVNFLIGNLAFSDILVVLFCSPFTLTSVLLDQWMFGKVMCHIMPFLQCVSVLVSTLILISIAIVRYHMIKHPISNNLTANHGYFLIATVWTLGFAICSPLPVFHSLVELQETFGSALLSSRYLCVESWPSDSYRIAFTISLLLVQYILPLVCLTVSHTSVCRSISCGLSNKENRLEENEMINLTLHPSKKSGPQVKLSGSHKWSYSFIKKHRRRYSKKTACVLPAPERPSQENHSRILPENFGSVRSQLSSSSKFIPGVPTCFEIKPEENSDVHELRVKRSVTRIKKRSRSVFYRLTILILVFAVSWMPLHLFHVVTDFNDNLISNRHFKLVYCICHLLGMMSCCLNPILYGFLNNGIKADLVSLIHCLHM
Assay: NPY5 HTS centrifugation assay: competition with 125I-PYY for binding to membranes of NPY5-transfected HEK293 cells
Conditions: 80 pM 125I-PYY, 1 hr room temperature; for inhibition at 0.3 µM / % Inh @ 300 nM (% Inhibition of 125I-PYY Binding): 300 nM compound; for inhibition at 0.3 µM: read-out: % Inh @ 300 nM (% Inhibition of 125I-PYY Binding); for inhibition at 3 µM / % Inh @ 3 uM (% Inhibition of 125I-PYY Binding): 3 uM compound; for inhibition at 3 µM: read-out: % Inh @ 3 uM (% Inhibition of 125I-PYY Binding)
Description: The compounds described in this invention were evaluated for binding to the human neuropeptide Y5 receptor.
Stably transfected cells served as the source for the membranes for the NPY5 receptor binding assay.
NPY5-transfected HEK293 cells were grown to confluence in 150 cm^2 culture dishes. […] Cells were then incubated in phosphate-buffered saline without Calcium and without Magnesium, supplemented with 2 mM EDTA. Cells were incubated for 10 minutes at room temperature and the cells were collected by repetitive pipeting. Cells were formed into pellets and then frozen at −80 until needed. Frozen pellets were homogenized with a polytron at full speed for 12 seconds in a homogenization buffer (20 mM Tris HCl, 5 mM EDTA, pH 7.4). Homogenates were centrifuged for 5 minutes at 4 C at 200 g. Supernatants were transferred to corex tubes and centrifuged for 25 minutes at 28,000 g. Pellets were re-suspended in Binding (20 mM HEPES, 10 mM NaCl, 0.22 mM KH2PO4, 1.3 mM CaCl2, 0.8 mM MgSO4, pH 7.4). Membranes were kept on ice until use.
Compounds to be tested were prepared as 10× stocks in binding buffer and added first to assay tubes (RIA vials, Sarstedt). […] To each tube is added 100 μL of membranes and the mixture is agitated by pipeting 2 times. Samples are incubated for 1 hr at room temperature. Aluminum cast plates (Sarstedt) containing the vials are then centrifuged 10 minutes at 3200 rpm in a Sorvall RT6000. Supernatant is then aspirated. To each vial 400 μL PBS is added and this is then aspirated again. Vials are then put in carrier polypropylene 12×75 tube and counted in gamma counter (Packard). Non-specific binding is determined in the presence of 300 nM NPY. […] These operations are known to those skilled in the art.

Compound	inhibition at 0.3 µM [%]	inhibition at 3 µM [%]	% Inh @ 300 nM (% Inhibition of 125I-PYY Binding) [%]	% Inh @ 3 uM (% Inhibition of 125I-PYY Binding) [%]
COc1ccc2c(c1)CCC(NC(=O)[C@H](CCCCNS(=O)(=O)c1ccccc1F)NC(C)=O)C2Cc1cccnc1 (stereo partly drawn) [Compound 10, (2S)-2-(Acetylamino)-6-[(2-fluorophenylsulfonyl)amino]-N-[cis-1,2,3,4-tetrahydro-6-methoxy-1-(3-pyridinylmethyl)-2-naphthenyl]hexanamide bis-hydrochloride]	60	96		
O=S(=O)(NC[C@H]1CC[C@H](CNCC(Cc2cccnc2)c2ccc(F)cc2)CC1)c1ccccc1F (stereo partly shown) [Compound 27]	105	110		
O=C(CN1CCC(NS(=O)(=O)c2ccccc2F)CC1)NCC(Cc1cccnc1)c1ccc(F)cc1 (stereo not shown) [Compound 30, N-[2-(4-Fluorophenyl)-3-(3-pyridinyl)propyl]-4-[(2-fluorophenylsulfonyl)amino]-1-piperidineacetamide bis-trifluoroacetate]	100	110		
O=C(CN1CCC(n2c(=O)[nH]c3ccccc32)CC1)NC1CCc2ccccc2C1Cc1cccnc1 (stereo not shown) [Compound 31]			91	100
O=C(CN1CCC(NC(=O)c2ccccc2)CC1)NC1CCc2cc(F)ccc2C1Cc1cccnc1 (stereo not shown) [Compound 44]			93	98
O=C(CN1CCC(NC(=O)Nc2ccccc2)CC1)NC1CCc2cc(F)ccc2C1Cc1cccnc1 (stereo not shown) [Compound 45]			68	95
O=C(Cc1ccccc1)NC1CCN(CC(=O)NC2CCc3cc(F)ccc3C2Cc2cccnc2)CC1 (stereo not shown) [Compound 47]			91	98
O=C(CN1CCC(NS(=O)(=O)c2ccccc2)CC1)NC1CCc2cc(F)ccc2C1Cc1cccnc1 (stereo not shown) [Compound 48]			97	103
O=C(CN1CCC(NC(=O)Nc2ccccc2)CC1)NC1CCc2ccccc2C1Cc1cccnc1 (stereo not shown) [Compound 51]			85	102
CC(C)(C)NC(=O)NC1CCN(CC(=O)NC2CCc3cc(F)ccc3C2Cc2cccnc2)CC1 (stereo not shown) [Compound 53]			84	92
CC(C)(C)OC(=O)NC1CCN(CC(=O)NC2CCc3cc(F)ccc3C2Cc2cccnc2)CC1 (stereo not shown) [Compound 54]			99	100
CC(C)(C)OC(=O)NC1CCN(CC(=O)NC2CCc3cc(F)ccc3C2Cc2cccnc2)C1 (stereo not shown) [Compound 55]			96	106
COc1ccc2c(c1)CCC(NC(=O)CN1CCC(n3c(=O)[nH]c4ccccc43)CC1)C2Cc1ccsc1 (stereo not shown) [Compound 61]			66	87
COc1ccc2c(c1)CCC(NC(=O)CN1CCC(n3c(=O)[nH]c4ccccc43)CC1)C2Cc1cnc[nH]1 (stereo not shown) [Compound 73]			32	63
COc1ccc2c(c1)CCC(NC(=O)CN1CCC(n3c(=O)[nH]c4ccccc43)CC1)C2 (stereo not shown) [Compound 82]			63	85
O=C(CN1CCC(n2c(=O)[nH]c3ccccc32)CC1)NC1CCc2cc(O)ccc2C1 (stereo not shown) [Compound 83]			72	92
COc1ccc(C(CNC(=O)CN2CCC(n3c(=O)[nH]c4ccccc43)CC2)Cc2cccnc2)cc1 (stereo not shown) [Compound 86]			88	91
O=C(CN1CCC(n2c(=O)[nH]c3ccccc32)CC1)NCC(Cc1cccnc1)c1ccc(O)cc1 (stereo not shown) [Compound 87]			97	96
O=C(CN1CCC(NC(=O)c2ccccc2)CC1)NCC(Cc1cccnc1)c1ccc(F)cc1 (stereo not shown) [Compound 92]			92	104
COc1ccccc1N1CCN(CC(=O)NC2CCc3ccccc3C2Cc2cccnc2)CC1 (stereo not shown) [Compound 93]			81	97
